Measurements published in US8476451B2 (priority 2007, dated 2013).
Converted amounts (≈) assume the structure as drawn.

Key:
[1] = test system: L929 mouse fibroblast cells; assay: Growth inhibition, MTT assay, L929; assay type: cell-based; settings: for Cytotoxicity / activity relative to tubulysin D, in words: statement on Table 2 cell lines
Description: (§1) Cell lines were obtained from the American Type Culture Collection (ATCC) and the German Collection of Microorganisms and Cell Cultures (DSMZ). All cell lines were cultivated under conditions recommended by their respective depositors. Growth inhibition was measured in microtiter plates. Aliquots of 120 μl of the suspended cells (50,000/mL) were given to 60 μL of a serial dilution of the inhibitor and incubated at 37° C. and 10% CO2. After 5 days, when control cells had grown to confluence state, the metabolic activity in each well was determined using an MTT assay.

[2] = test system: KB-3-1 human cervix carcinoma cells; assay: Growth inhibition, MTT assay, KB-3-1; assay type: cell-based; settings: KB 3-1, 120 h; human cervix carcinoma (DSMZ ACC 158); MTT after 5 days; read-out: IC50 (ng/mL) KB-3-1
Description: as §1

[3] = test system: SW-480 human colon adenocarcinoma cells; assay: Growth inhibition, MTT assay, SW-480; assay type: cell-based; settings: for Activity relative to tubulysin D in SW-480, in words: colon cancer cell line SW-480
Description: as §1

[4] = Growth inhibition, MTT assay, L929; assay type: cell-based, Mouse; settings: mouse, L929 mouse fibroblast cells; cell line not given; read-out: Cytotoxicity (text, refers to Table 2)
Description: as §1

Row | SMILES | Cytotoxicity / activity relative to tubulysin D, in words [1] | further results
1 | CC[C@H](C)[C@H](NC(=O)[C@H]1CCCCN1C)C(=O)N(COC(=O)CC(C)C)[C@H](C[C@@H](OC(C)=O)c1nc(C(=O)NC)cs1)C(C)C [Analogue 4, 3-methyl-butyric acid ({1-[2-acetoxy-2-(4-methylcarbamoyl-thiazol-2-yl)-ethyl]-2-methyl-propyl}-{3-methyl-2-[(1-methyl-piperidine-2-carbonyl)-amino]-pentanoyl}-amino)-methyl ester] | maintained good activity | 
2 | CC[C@H](C)[C@H](NC(=O)[C@H]1CCCCN1C)C(=O)N(COC(=O)CC(C)C)[C@H](C[C@@H](O)c1nc(C(=O)N[C@@H](Cc2ccccc2)C[C@H](C)C(=O)O)cs1)C(C)C [Analogue 9] | minimal drop in cytotoxicity relative to the natural product | IC50 [2]: 0.22 ng/mL (≈ 0.28 nM); IC50 ([3]; SW480, 120 h, human colon adenocarcinoma (ATCC CCL-228), MTT after 5 days, read-out: IC50 (ng/mL) SW-480): 0.057 ng/mL (≈ 0.0725 nM); IC50 ([1]; L929, 120 h, mouse fibroblasts (DSMZ ACC 2), MTT after 5 days, read-out: IC50 (ng/mL) L929): 0.25 ng/mL (≈ 0.318 nM)
3 | CC[C@H](C)[C@H](NC(=O)[C@H]1CCCCN1C)C(=O)N(COC(=O)CC(C)C)[C@H](C[C@@H](OC(C)=O)c1nc(C(=O)NCCCC(=O)O)cs1)C(C)C [Analogue 3, 3-Methyl-butyric acid ((1-{2-acetoxy-2-[4-(3-carboxy-propylcarbamoyl)-thiazol-2-yl]-ethyl}-2-methyl-propyl)-{3-methyl-2-[(1-methyl-piperidine-2-carbonyl)-amino]-pentanoyl}-amino)-methyl ester] | cytoxicity comparable to the parent tubulysin | 
4 | CC[C@H](C)[C@H](NC(=O)[C@H]1CCCCN1C)C(=O)N(COC(=O)CC(C)C)[C@H](C[C@@H](OC(C)=O)c1nc(C(=O)NCCc2ccccc2)cs1)C(C)C [Analogue 2, 3-methyl-butyric acid ({1-[2-acetoxy-2-(4-phenethylcarbamoyl-thiazol-2-yl)-ethyl]-2-methyl-propyl}-{3-methyl-2-[(1-methyl-piperidine-2-carbonyl)-amino]-pentanoyl}-amino)-methyl ester] | cytoxicity comparable to the parent tubulysin | 
5 | CC[C@H](C)[C@H](NC(=O)CN(C)C)C(=O)N(COC(=O)CC(C)C)[C@H](C[C@@H](OC(C)=O)c1nc(C(=O)N[C@@H](Cc2ccccc2)C[C@H](C)C(=O)O)cs1)C(C)C [Analogue 6, 4-[(2-{1-acetoxy-3-[[2-(2-dimethylamino-acetylamino)-3-methyl-pentanoyl]-(3-methyl-butyryloxymethyl)-amino]-4-methyl-pentyl}-thiazole-4-carbonyl)-amino]-2-methyl-5-phenyl-pentanoic acid] | essentially equipotent with tubulysin D | Activity relative to tubulysin D in SW-480, in words [3]: more active than tubulysin D
6 | CC[C@H](C)[C@H](NC(=O)[C@H]1CCCCN1C)C(=O)N(C)[C@H](C[C@@H](OC(C)=O)c1nc(C(=O)N[C@@H](Cc2ccccc2)C[C@H](C)C(=O)O)cs1)C(C)C [Analogue 10, 4-({2-[1-Acetoxy-4-methyl-3-(methyl-{3-methyl-2-[(1-methyl-piperidine-2-carbonyl)-amino]-pentanoyl}-amino)-pentyl]-thiazole-4-carbonyl}-amino)-2-methyl-5-phenyl-pentanoic acid] |  | Activity relative to tubulysin D in SW-480, in words [3]: more active than tubulysin D
7 | CC[C@H](C)[C@H](NC(C)=O)C(=O)N(COC(=O)CC(C)C)[C@H](C[C@@H](OC(C)=O)c1nc(C(=O)N[C@@H](Cc2ccccc2)C[C@H](C)C(=O)O)cs1)C(C)C [Analogue 7] | drastic decrease in activity | 
8 | CC[C@H](C)[C@H](NC(=O)[C@H]1CCCCN1C)C(=O)N(C)[C@H](C[C@@H](OC(C)=O)c1nc(C(=O)NC)cs1)C(C)C [Analogue 11, acetic acid 4-methyl-1-(4-methylcarbamoyl-thiazol-2-yl)-3-(methyl-{3-methyl-2-[(1-methyl-piperidine-2-carbonyl)-amino]-pentanoyl}-amino)-pentyl ester] |  | IC50 at 5 days [4]: 2 ng/mL (≈ 3.62 nM)
9 | CC[C@H](C)[C@H](NC(=O)[C@H]1CCCCN1C)C(=O)N(COC(=O)CC(C)C)[C@H](C[C@@H](OC(C)=O)c1nc(C(=O)O)cs1)C(C)C [Analogue 5, 2-[1-acetoxy-4-methyl-3-((3-methyl-butyryloxymethyl)-{3-methyl-2-[(1-methyl-piperidine-2-carbonyl)-amino]-pentanoyl}-amino)-pentyl]-thiazole-4-carboxylic acid] | maintained good activity | 
10 | CC[C@H](C)[C@H](N=[N+]=[N-])C(=O)N(COC(=O)CC(C)C)[C@H](C[C@@H](OC(C)=O)c1nc(C(=O)N[C@@H](Cc2ccccc2)C[C@H](C)C(=O)O)cs1)C(C)C [Analogue 8, 4-[(2-{1-acetoxy-3-[(2-azido-3-methyl-pentanoyl)-(3-methyl-butyryloxymethyl)-amino]-4-methyl-pentyl}-thiazole-4-carbonyl)-amino]-2-methyl-5-phenyl-pentanoic acid] | drastic decrease in activity | 
